Results from the supplement of paper PMC10307832.

Tests used:
Assay in all cases: relative viability (nuclei count vs DMSO), 5 days (fraction); higher = more cells survive
AZD8055 + Pictilisib = compound: COc1ccc(-c2ccc3c(N4CCOC[C@@H]4C)nc(N4CCOC[C@@H]4C)nc3n2)cc1CO [AZD8055] + CS(=O)(=O)N1CCN(Cc2cc3nc(-c4cccc5[nH]ncc45)nc(N4CCOCC4)c3s2)CC1 [Pictilisib] (partner 1 µM)
In short: (§1)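 Medians of duplicate plates are given as relative viability. That measure is the nuclei count in treated wells divided by the count in vehicle wells. Counts were taken on 4× images of lung cancer cell lines in 1536-well plates, 5 days after pin-tool dosing the day after seeding with one drug alone or a fixed anchor-drug dose plus five library-drug doses (not always all listed) in √10 steps.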

AZD8055 + Phenformin = compound: COc1ccc(-c2ccc3c(N4CCOC[C@@H]4C)nc(N4CCOC[C@@H]4C)nc3n2)cc1CO [AZD8055] + N=C(N)NC(=N)NCCc1ccccc1 [Phenformin] (partner 250 µM)
In short: as §1

AZD8055 + Palbociclib = compound: COc1ccc(-c2ccc3c(N4CCOC[C@@H]4C)nc(N4CCOC[C@@H]4C)nc3n2)cc1CO [AZD8055] + CC(=O)c1c(C)c2cnc(Nc3ccc(N4CCNCC4)cn3)nc2n(C2CCCC2)c1=O [Palbociclib] (partner 0.5 µM)
In short: as §1

AZD8055 + Decitabine = compound: COc1ccc(-c2ccc3c(N4CCOC[C@@H]4C)nc(N4CCOC[C@@H]4C)nc3n2)cc1CO [AZD8055] + Nc1ncn([C@H]2C[C@H](O)[C@@H](CO)O2)c(=O)n1 [Decitabine] (partner 2 µM)
In short: as §1

| Cell Line | relative viability (AZD8055 + Pictilisib; first compound 0.01 µM) | relative viability (AZD8055 + Pictilisib; first compound 0.03162 µM) | relative viability (AZD8055 + Pictilisib; first compound 0.1 µM) | relative viability (AZD8055 + Pictilisib; first compound 0.3162 µM) | relative viability (AZD8055 + Pictilisib; first compound 1 µM) | relative viability (AZD8055 + Phenformin; first compound 0.01 µM) | relative viability (AZD8055 + Phenformin; first compound 0.03162 µM) | relative viability (AZD8055 + Phenformin; first compound 0.1 µM) | relative viability (AZD8055 + Phenformin; first compound 0.3162 µM) | relative viability (AZD8055 + Phenformin; first compound 1 µM) | relative viability (AZD8055 + Palbociclib; first compound 0.01 µM) | relative viability (AZD8055 + Palbociclib; first compound 0.03162 µM) | relative viability (AZD8055 + Palbociclib; first compound 0.1 µM) | relative viability (AZD8055 + Palbociclib; first compound 0.3162 µM) | relative viability (AZD8055 + Palbociclib; first compound 1 µM) | relative viability (AZD8055 + Decitabine; first compound 0.01 µM) | relative viability (AZD8055 + Decitabine; first compound 0.03162 µM) | relative viability (AZD8055 + Decitabine; first compound 0.1 µM) | relative viability (AZD8055 + Decitabine; first compound 0.3162 µM) | relative viability (AZD8055 + Decitabine; first compound 1 µM) |
| --- | --- | --- | --- | --- | --- | --- | --- | --- | --- | --- | --- | --- | --- | --- | --- | --- | --- | --- | --- | --- |
| NCI-H1993 | 0.752 | 0.701 | 0.892 | 0.637 | 0.896 | 0.509 | 0.469 | 0.529 | 0.49 | 0.576 | 0.596 | 0.47 | 0.39 | 0.408 | 0.404 | 0.49 | 0.488 | 0.49 | 0.444 | 0.386 |
| NCI-H838 | 0.439 | 0.212 | 0.212 | 0.219 | 0.257 | 0.553 | 0.362 | 0.354 | 0.233 | 0.218 | 0.214 | 0.156 | 0.163 | 0.16 | 0.17 | 0.513 | 0.343 | 0.305 | 0.278 | 0.296 |
| NCI-H1437 | 0.394 | 0.225 | 0.223 | 0.124 | 0.127 | 0.315 | 0.299 | 0.301 | 0.206 | 0.203 | 0.358 | 0.434 | 0.338 | 0.221 | 0.203 | 0.612 | 0.553 | 0.509 | 0.363 | 0.302 |
| NCI-H2170 | 0.273 | 0.255 | 0.213 | 0.222 | 0.23 | 0.438 | 0.437 | 0.471 | 0.407 | 0.341 | 0.331 | 0.314 | 0.233 | 0.173 | 0.143 | 0.537 | 0.363 | 0.456 | 0.252 | 0.218 |
| NCI-H1648 | – | – | – | – | – | – | – | – | – | – | 0.251 | 0.332 | 0.201 | 0.235 | 0.241 | 0.422 | 0.504 | 0.42 | 0.277 | 0.261 |
| SW 900 | – | – | – | – | – | 0.568 | 0.343 | 0.489 | 0.368 | 0.169 | 0.546 | 0.559 | 0.474 | 0.261 | 0.289 | 0.459 | 0.519 | 0.472 | 0.492 | 0.47 |
| NCI-H596 | 0.341 | 0.363 | 0.32 | 0.308 | 0.337 | 0.777 | 0.685 | 0.608 | 0.407 | 0.375 | – | – | – | – | – | 1.06 | 0.841 | 0.698 | 0.571 | 0.528 |
| IA-LM | 0.221 | 0.217 | 0.118 | 0.0814 | 0.0826 | – | – | – | – | – | – | – | – | – | – | – | – | – | – | – |
| NCI-H1563 | 0.651 | 0.614 | 0.65 | 0.61 | 0.638 | 0.632 | 0.66 | 0.617 | 0.656 | 0.641 | – | – | – | – | – | – | – | – | – | – |
| NCI-H522 | – | – | – | – | – | 0.69 | 0.624 | 0.669 | 0.48 | 0.56 | 1.06 | 0.923 | 0.717 | 0.536 | 0.414 | 0.737 | 0.591 | 0.619 | 0.527 | 0.462 |
| CAL-12T | 0.393 | 0.341 | 0.349 | 0.322 | 0.213 | 0.567 | 0.626 | 0.479 | 0.23 | 0.2 | 0.353 | 0.399 | 0.171 | 0.163 | 0.191 | – | – | – | – | – |
